From ChEMBL document CHEMBL1133063, “Nonbenzamidine compounds as selective factor Xa inhibitors” (Bioorg Med Chem Lett, 2000)

How the values were obtained:
Coagulation factor X = Coagulation factor X (Homo sapiens, UniProt P00742); experiment: Compound was evaluated for the inhibitory activity against Coagulation factor X
Plasminogen = Plasminogen (Homo sapiens, UniProt P00747); experiment: Compound was evaluated for the inhibitory activity against plasmin
Serine protease 1 [1] = target: T1, Serine protease 1 (Homo sapiens, UniProt P07477); experiment: Compound was evaluated for the inhibitory activity against trypsin
T1 sequence (P07477 whole entry): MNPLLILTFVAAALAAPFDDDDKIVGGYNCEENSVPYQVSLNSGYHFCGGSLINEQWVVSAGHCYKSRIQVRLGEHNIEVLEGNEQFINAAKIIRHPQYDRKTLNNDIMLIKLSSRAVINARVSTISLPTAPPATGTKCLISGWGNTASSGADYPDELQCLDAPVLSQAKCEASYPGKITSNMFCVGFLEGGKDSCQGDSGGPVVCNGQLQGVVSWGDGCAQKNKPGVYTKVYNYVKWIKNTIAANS

[2] = target: Vitamin K-dependent protein C (Homo sapiens, UniProt P04070); experiment: Compound was evaluated for the inhibitory activity against Activated protein C
Vitamin K-dependent protein C, sequence (P04070 43-197 limits assumed): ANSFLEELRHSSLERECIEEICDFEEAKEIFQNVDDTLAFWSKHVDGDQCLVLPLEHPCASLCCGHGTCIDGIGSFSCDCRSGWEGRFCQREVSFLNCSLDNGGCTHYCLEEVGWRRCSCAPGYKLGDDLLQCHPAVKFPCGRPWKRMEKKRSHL
Vitamin K-dependent protein C, sequence (P04070 212-461 limits assumed): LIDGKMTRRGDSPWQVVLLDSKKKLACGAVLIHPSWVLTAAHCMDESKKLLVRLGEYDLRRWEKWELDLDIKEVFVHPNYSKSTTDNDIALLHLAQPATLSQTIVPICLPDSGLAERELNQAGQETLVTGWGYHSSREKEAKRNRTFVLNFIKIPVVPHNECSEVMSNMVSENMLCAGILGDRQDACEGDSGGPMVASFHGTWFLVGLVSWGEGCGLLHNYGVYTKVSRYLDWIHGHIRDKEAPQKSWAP

[3] = target: T2, Tissue-type plasminogen activator (Homo sapiens, UniProt P00750); experiment: Compound was evaluated for the inhibitory activity against t-PA
T2 sequence (P00750 whole entry): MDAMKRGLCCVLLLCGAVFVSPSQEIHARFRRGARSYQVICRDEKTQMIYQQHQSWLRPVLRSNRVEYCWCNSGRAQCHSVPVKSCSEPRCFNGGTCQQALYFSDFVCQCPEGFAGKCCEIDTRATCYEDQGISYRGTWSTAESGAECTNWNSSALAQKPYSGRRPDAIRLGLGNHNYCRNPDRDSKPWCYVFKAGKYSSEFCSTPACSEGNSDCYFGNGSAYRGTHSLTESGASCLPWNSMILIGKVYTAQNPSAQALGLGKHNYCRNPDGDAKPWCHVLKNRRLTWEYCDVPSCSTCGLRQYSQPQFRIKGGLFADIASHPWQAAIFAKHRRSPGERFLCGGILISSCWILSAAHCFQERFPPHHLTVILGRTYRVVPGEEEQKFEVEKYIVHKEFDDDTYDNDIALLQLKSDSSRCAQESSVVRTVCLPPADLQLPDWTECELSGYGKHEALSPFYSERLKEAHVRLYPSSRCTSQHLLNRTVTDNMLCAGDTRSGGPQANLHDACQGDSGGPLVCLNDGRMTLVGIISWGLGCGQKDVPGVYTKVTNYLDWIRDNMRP

Prothrombin = Prothrombin (Homo sapiens, UniProt P00734); experiment: Compound was evaluated for the inhibitory activity against thrombin
Serine protease 1 [4] = target: T1, Serine protease 1; experiment: Compound was evaluated for the inhibitory activity against trypsin.
[5] = target: T2, Tissue-type plasminogen activator; experiment: Compound was evaluated for the inhibitory activity against t-PA.

Coagulation factor X, sequence (P00742 41-179 limits assumed): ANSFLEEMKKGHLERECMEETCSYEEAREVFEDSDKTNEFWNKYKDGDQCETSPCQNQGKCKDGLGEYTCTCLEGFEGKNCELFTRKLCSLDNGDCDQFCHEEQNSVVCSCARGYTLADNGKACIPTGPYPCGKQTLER
Coagulation factor X, sequence (P00742 235-488 limits assumed): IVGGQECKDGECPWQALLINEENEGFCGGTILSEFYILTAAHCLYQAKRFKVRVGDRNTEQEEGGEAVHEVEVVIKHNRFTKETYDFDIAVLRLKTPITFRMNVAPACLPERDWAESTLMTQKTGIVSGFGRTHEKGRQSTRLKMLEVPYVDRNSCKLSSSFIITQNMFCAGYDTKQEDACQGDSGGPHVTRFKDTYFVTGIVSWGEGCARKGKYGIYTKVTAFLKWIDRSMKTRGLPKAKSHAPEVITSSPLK
Plasminogen, sequence (P00747 97-580 limits assumed): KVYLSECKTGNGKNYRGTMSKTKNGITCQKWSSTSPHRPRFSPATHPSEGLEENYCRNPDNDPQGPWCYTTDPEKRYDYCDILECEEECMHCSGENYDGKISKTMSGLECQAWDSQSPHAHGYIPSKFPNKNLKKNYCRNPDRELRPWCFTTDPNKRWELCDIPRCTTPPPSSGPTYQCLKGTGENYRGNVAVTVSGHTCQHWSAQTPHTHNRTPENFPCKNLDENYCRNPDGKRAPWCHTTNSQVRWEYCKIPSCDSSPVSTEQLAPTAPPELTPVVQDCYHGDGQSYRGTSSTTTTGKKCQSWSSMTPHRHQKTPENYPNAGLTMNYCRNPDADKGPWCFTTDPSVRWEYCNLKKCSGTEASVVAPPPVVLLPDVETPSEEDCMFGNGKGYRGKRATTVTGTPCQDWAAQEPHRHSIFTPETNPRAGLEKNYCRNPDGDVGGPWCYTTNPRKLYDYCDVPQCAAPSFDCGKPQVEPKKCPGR
Plasminogen, sequence (P00747 581-810 limits assumed): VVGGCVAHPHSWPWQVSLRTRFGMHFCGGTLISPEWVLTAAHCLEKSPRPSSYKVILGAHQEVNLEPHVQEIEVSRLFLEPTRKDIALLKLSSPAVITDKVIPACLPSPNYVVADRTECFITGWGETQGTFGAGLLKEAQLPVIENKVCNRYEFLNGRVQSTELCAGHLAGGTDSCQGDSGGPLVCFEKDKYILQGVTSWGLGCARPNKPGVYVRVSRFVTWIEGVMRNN

In the case of `O=C(CN1CCN(S(=O)(=O)c2cc3ccc(Cl)cc3s2)CC1=O)NCCc1ccncc1`, the Ki (Coagulation factor X) is reported as 59 nM.
With `O=C(CN1CCN(S(=O)(=O)c2cc3ccc(Cl)cc3s2)CC1=O)NCc1cccnc1` the Ki (Coagulation factor X) was > 1200 nM.
`CN(C(=O)CN1CCN(S(=O)(=O)c2cc3ccc(Cl)cc3s2)CC1=O)c1ccncc1` was tested, and the Ki (Coagulation factor X) was > 1200 nM.
In the case of `O=C(CN1CCN(S(=O)(=O)c2cc3ccc(Cl)cc3s2)CC1=O)NCCc1ccccn1`, the Ki (Coagulation factor X) is reported as 140 nM.
For `O=C(CN1CCN(S(=O)(=O)c2cc3ccc(Cl)cc3s2)CC1=O)NCCCn1ccnc1`, the Ki (Coagulation factor X) was > 1200 nM.
`O=C(CN1CCN(S(=O)(=O)c2cc3ccc(Cl)cc3s2)CC1=O)Nc1ccncc1` showed a Ki (Coagulation factor X) of 170 nM.
In the case of `O=C(CN1CCN(S(=O)(=O)c2cc3ccc(Cl)cc3s2)CC1=O)Nc1cccnc1`, the Ki (Coagulation factor X) is reported as > 1200 nM.
`O=C(CN1CCN(S(=O)(=O)c2cc3ccc(Cl)cc3s2)CC1=O)NCCc1c[nH]c(S)n1` was tested, and the Ki (Coagulation factor X) was 620 nM.
For `Cn1cnc(CCNC(=O)CN2CCN(S(=O)(=O)c3cc4ccc(Cl)cc4s3)CC2=O)c1`, the Ki (Coagulation factor X) was 430 nM.
In the case of `O=C(CN1CCN(S(=O)(=O)c2cc3ccc(Cl)cc3s2)CC1=O)Nc1ccccc1`, the Ki (Coagulation factor X) is reported as > 1200 nM.
With `O=C(CN1CCN(S(=O)(=O)c2cc3ccc(Cl)cc3s2)CC1=O)NCCc1cnc[nH]1` the Ki (Plasminogen) was > 7300 nM, the Ki (Serine protease 1 [1]) was > 2900 nM and the Ki [2] was > 18000 nM. For the same compound, the Ki [3] was > 8700 nM, the Ki (Prothrombin) was > 4000 nM and the Ki (Coagulation factor X) was 21 nM.
For `Nc1nc(CCNC(=O)CN2CCN(S(=O)(=O)c3cc4ccc(Cl)cc4s3)CC2=O)cs1`, the Ki (Coagulation factor X) was 620 nM.
For `Cn1cccc1CCNC(=O)CN1CCN(S(=O)(=O)c2cc3ccc(Cl)cc3s2)CC1=O`, the Ki (Coagulation factor X) was > 1200 nM.
Work on `Cc1ncsc1CCNC(=O)CN1CCN(S(=O)(=O)c2cc3ccc(Cl)cc3s2)CC1=O` yielded a Ki (Coagulation factor X) of 270 nM.
`O=C(CN1CCN(S(=O)(=O)c2cc3ccc(Cl)cc3s2)CC1=O)NCCc1cscn1` showed a Ki (Coagulation factor X) of 160 nM.
With `O=C(CN1CCN(S(=O)(=O)c2cc3ccc(Cl)cc3s2)CC1=O)NCCc1cccnc1` the Ki (Coagulation factor X) was 250 nM.
`O=C(CN1CCN(S(=O)(=O)c2cc3ccc(Cl)cc3s2)CC1=O)Nc1ccncn1` showed a Ki (Coagulation factor X) of 97 nM.
In the case of `COC(=O)[C@H](Cc1c[nH]cn1)NC(=O)CN1CCN(S(=O)(=O)c2cc3ccc(Cl)cc3s2)CC1=O`, the Ki (Coagulation factor X) is reported as > 1200 nM.
With `Cn1cncc1CCNC(=O)CN1CCN(S(=O)(=O)c2cc3ccc(Cl)cc3s2)CC1=O` the Ki (Serine protease 1 [4]) was > 2900 nM, the Ki (Plasminogen) was > 7300 nM and the Ki [5] was > 8700 nM. For the same compound, the Ki [2] was > 18000 nM, the Ki (Prothrombin) was > 4000 nM and the Ki (Coagulation factor X) was 12 nM.
`O=C(CN1CCN(S(=O)(=O)c2cc3ccc(Cl)cc3s2)CC1=O)NC1CCNCC1` was tested, and the Ki (Coagulation factor X) was > 1200 nM.
`Cc1[nH]cnc1CCNC(=O)CN1CCN(S(=O)(=O)c2cc3ccc(Cl)cc3s2)CC1=O` gave a Ki (Coagulation factor X) of 340 nM.
With `Nc1cc(CCNC(=O)CN2CCN(S(=O)(=O)c3cc4ccc(Cl)cc4s3)CC2=O)ccn1` the Ki (Coagulation factor X) was 140 nM.
With `COC(=O)[C@@H](Cc1cnc[nH]1)NC(=O)CN1CCN(S(=O)(=O)c2cc3ccc(Cl)cc3s2)CC1=O` the Ki (Coagulation factor X) was > 1200 nM.
`O=C(CN1CCN(S(=O)(=O)c2cc3ccc(Cl)cc3s2)CC1=O)NCCn1ccnc1` was tested, and the Ki (Coagulation factor X) was > 1200 nM.
